Measurements published in paper PMC10482942, “Novel quinazoline-1,2,3-triazole hybrids with anticancer and MET kinase targeting properties” (Scientific Reports, 2023).

Experiments:
PDGFRA (h) = biological target: T1, PDGFRA (h) (Homo sapiens, UniProt P16234); assay: Radiometric kinase panel assay and dose-response; format: biochemical; settings: for inhibition at 10 µM: radiometric assay, Km ATP
T1 construct: purchased Eurofins Discovery
Procedure: Moreover, a dose–response analysis was performed at six concentrations to determine the activity of compound 8c against PDGFRA kinase, and IC50 value was estimated by curve fitting. The tests were performed by Eurofins Discovery (https://www.eurofinsdiscovery.com).

TRKA (h) = biological target: T2, TRKA (h) (Homo sapiens, UniProt P04629); assay: Radiometric kinase panel assay; format: biochemical; settings: Km ATP
T2 construct: purchased Eurofins Discovery
T2 sequence (P04629 33-796): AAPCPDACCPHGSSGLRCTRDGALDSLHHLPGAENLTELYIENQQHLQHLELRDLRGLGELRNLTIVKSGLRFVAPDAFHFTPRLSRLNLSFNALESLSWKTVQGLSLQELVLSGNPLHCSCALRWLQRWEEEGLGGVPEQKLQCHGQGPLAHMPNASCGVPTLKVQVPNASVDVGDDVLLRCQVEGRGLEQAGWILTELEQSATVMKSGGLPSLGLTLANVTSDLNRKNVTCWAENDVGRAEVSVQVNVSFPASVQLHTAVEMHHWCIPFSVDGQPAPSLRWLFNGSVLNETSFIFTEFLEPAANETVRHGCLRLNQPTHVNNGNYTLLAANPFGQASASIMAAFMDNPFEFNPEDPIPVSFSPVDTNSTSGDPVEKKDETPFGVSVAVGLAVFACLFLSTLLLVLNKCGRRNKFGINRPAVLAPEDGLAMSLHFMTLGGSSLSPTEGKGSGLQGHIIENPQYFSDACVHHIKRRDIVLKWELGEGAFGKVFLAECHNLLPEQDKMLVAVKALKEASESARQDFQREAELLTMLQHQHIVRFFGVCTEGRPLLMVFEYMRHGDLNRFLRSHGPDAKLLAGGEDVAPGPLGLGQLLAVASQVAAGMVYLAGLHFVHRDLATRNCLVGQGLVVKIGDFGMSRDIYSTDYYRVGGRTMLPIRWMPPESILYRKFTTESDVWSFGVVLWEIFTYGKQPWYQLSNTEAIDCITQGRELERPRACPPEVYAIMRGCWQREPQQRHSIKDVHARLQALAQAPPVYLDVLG

KIT (h) = biological target: T3, KIT (h) (Homo sapiens, UniProt P10721); assay: Radiometric kinase panel assay; format: biochemical; settings: Km ATP
T3 construct: purchased Eurofins Discovery
T3 sequence (P10721 26-976): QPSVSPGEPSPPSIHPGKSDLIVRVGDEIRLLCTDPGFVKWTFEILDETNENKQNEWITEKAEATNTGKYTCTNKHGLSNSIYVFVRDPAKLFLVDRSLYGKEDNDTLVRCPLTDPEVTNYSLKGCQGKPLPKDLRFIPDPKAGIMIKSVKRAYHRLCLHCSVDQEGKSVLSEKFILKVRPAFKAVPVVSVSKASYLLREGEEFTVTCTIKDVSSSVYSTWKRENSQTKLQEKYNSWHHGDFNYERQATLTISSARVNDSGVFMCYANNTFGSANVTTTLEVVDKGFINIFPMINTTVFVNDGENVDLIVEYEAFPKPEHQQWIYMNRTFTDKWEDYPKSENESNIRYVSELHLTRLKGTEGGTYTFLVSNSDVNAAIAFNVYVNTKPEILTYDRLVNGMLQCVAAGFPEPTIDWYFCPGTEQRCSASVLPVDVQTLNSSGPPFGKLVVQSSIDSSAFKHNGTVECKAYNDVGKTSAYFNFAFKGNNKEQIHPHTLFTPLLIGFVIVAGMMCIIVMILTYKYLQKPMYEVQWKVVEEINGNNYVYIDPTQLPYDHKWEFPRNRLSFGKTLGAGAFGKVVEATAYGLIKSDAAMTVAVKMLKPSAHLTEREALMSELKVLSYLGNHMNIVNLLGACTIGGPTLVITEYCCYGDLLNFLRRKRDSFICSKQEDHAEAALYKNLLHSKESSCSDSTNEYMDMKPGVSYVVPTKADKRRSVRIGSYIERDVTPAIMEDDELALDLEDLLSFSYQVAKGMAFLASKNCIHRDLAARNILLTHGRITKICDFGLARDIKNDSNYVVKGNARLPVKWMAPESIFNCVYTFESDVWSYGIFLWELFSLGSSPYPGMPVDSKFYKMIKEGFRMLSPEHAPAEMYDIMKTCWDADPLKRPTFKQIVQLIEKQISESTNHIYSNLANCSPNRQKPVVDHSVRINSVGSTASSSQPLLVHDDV

MKN-45 cells = assay: SRB antiproliferative assay, monolayer culture; format: cell-based, human; settings: Homo sapiens, MKN-45, 72 h, mean ± S.E.M.
Procedure: (§1) EBC-1 (human lung […] cells with MET gene amplification) and Mia-Paca-2 (human PDAC cells) were obtained from Japanese Collection of Research Bio Resources Cell Bank (JCRB). AsPC-1 (human PDAC), MKN-45 (human gastric adenocarcinoma cells with MET gene amplification), HT-29 (human colorectal adenocarcinoma), and K562 cells (human chronic myelogenous leukemia) were obtained from the Iranian Biological Resource Centre, Tehran, Iran. AsPC-1, EBC-1, MKN-45, and K562 cells were cultured in RPMI 1640 medium containing 10% heat-inactivated fetal bovine serum (FBS) and 1% penicillin/streptomycin. Mia-Paca-2 and HT-29 cells were grown in DMEM low glucose, containing 10% and 20% heat-inactivated FBS, resoectively and 100 U/ml penicillin/streptomycin. All cells were grown in monolayer cultures at 37 °C in a humidified incubator with 5% CO2.
(§2) Antiproliferative effects of synthetic compounds were evaluated by the SRB assay as described previously. Cancer cells were trypsinized, homogenous cell suspensions were prepared and 100 µl of cell suspensions were cultured at the densities of 5 × 10^4 cells/ml (for AsPC-1 and Mia-Paca-2), 4 × 10^4 cells/m (for EBC-1 and MKN-45), 3 × 10^4 cells/ml (for K562) and 1 × 10^4 cells/ml (for HT-29) in 96-well flat-bottom plates. After 24 h of incubation to allow cells to attach and resume optimal growth, the synthetic compounds dissolved in DMSO and diluted in the growth medium were added. One hundred µl of synthesized derivatives were added at different concentrations in triplicate and incubated for an additional 72 h at 37 °C. The cells were then fixed by gentle addition of 50 μl cold trichloroacetic acid (TCA) 50% (w/v, 10% final concentration) and incubated for 60 min at 4 °C. Then, the supernatant was discarded, and the plates were washed four times with distilled water and air dried. Afterwards, 100 μl of SRB solution 0.04% (w/v) dissolved in 1% acetic acid was added to each well, and plates were incubated for 15 min at room temperature. At the next step, the unbound dye was removed by washing four times with 1% acetic acid and the plates were air dried. The bound stain was finally solubilized with 150 μl of 10 mM Tris base solution, and the absorbance was recorded at a wavelength of 540 nm with a Bio-Tek microplate reader (Model Synergy HTX).

Mia-Paca-2 cells = assay: SRB antiproliferative assay, monolayer culture; format: cell-based, human; settings: Homo sapiens, MIA PaCa-2, 72 h, mean ± S.E.M.
Procedure: as §1, §2

EBC-1 cells = assay: SRB antiproliferative assay, monolayer culture; format: cell-based, human; settings: Homo sapiens, EBC-1, 72 h, mean ± S.E.M.
Procedure: as §1, §2

K562 cells = assay: SRB antiproliferative assay, monolayer culture; format: cell-based, human; settings: Homo sapiens, K562, 72 h, mean ± S.E.M.
Procedure: as §1, §2

AsPC-1 cells [1] = assay: SRB antiproliferative assay, monolayer culture; format: cell-based, human; settings: Homo sapiens, ASPC1, 72 h, mean ± S.E.M.
Procedure: as §1, §2

HT-29 cells = assay: SRB antiproliferative assay, monolayer culture; format: cell-based, human; settings: Homo sapiens, HT-29, 72 h, mean ± S.E.M.
Procedure: as §1, §2

MET kinase = biological target: T4, MET kinase (Homo sapiens, UniProt P08581); assay: MET kinase enzymatic HTRF assay; format: biochemical
T4 construct: purchased Millipore
T4 sequence (P08581 25-1390): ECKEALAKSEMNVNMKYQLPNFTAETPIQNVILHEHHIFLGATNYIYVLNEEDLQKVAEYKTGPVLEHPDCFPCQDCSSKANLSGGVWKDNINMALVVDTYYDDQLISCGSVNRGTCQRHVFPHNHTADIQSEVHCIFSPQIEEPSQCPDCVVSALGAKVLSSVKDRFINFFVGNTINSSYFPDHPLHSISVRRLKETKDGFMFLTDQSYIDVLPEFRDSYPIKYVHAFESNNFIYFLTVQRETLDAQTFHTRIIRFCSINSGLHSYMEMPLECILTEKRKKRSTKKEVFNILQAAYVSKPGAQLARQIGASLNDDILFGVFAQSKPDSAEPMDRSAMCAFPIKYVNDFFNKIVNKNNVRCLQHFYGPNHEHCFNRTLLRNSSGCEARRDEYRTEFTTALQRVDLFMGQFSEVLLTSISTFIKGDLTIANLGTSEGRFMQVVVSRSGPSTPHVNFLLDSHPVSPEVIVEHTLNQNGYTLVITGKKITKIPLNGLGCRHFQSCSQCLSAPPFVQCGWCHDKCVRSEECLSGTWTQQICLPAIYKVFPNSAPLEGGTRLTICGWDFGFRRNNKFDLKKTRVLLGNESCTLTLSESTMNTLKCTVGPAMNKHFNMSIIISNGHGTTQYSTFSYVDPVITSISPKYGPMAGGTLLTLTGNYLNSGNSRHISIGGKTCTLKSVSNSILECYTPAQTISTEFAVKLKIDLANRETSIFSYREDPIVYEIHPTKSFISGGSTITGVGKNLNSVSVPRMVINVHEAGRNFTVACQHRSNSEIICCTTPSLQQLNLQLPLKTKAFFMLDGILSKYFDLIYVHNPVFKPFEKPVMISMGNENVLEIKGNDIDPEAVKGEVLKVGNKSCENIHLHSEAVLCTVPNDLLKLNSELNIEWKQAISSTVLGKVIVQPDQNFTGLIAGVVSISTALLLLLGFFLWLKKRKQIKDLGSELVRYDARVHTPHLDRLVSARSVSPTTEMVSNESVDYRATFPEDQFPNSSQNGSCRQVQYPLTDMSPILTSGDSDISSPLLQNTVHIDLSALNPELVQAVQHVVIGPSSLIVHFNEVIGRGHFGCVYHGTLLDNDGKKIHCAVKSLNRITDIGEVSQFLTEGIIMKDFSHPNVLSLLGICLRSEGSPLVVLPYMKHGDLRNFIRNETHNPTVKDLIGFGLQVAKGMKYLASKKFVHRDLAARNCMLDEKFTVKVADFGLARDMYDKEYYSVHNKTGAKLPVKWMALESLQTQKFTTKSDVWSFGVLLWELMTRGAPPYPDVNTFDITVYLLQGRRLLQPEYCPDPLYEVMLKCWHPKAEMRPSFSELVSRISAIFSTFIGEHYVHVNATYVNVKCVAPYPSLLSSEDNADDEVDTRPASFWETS
Procedure: HTRF assay detects the phosphorylation level of a biotinylated tyrosine kinase substrate peptide (TK substrate) by MET kinase. The HTRF® KinEASE™ TK kit and MET kinase were purchased from Cisbio and Millipore, respectively. The optimal conditions for enzyme, substrate, ATP concentrations, and enzymatic reaction times were set.
In order to prepare the test compounds, after dissolving in DMSO, they were diluted in the reaction buffer containing 50 mM HEPES pH 7.0, 0.1 mM sodium orthovanadate, 0.01% BSA, 0.02% NaN3, 10 mM MgCl2, 5 mM MnCl2, 2 mM DTT. […] Finally, the Time Resolved-Fluorescence Resonance Energy Transfer (TR-FRET) signal was measured after an hour of incubation at room temperature.
The following equations were used to determine the inhibition rate (%): Ratio665/620=Emission665 nm/Emission620nm ΔR=Ratio Sample665/620-Ratio Background665/620∗100/Ratio Background665/620 Inhibition%=ΔRControl-ΔRSample∗100/ΔRControl
Background samples contained all reagents except for the enzyme. Control wells contained the same amount of DMSO contained in the sample.

ABL (h) = biological target: T5, ABL (h) (Homo sapiens, UniProt P00519); assay: Radiometric kinase panel assay; format: biochemical; settings: Km ATP
T5 construct: purchased Eurofins Discovery

FLT3 (h) = biological target: T6, FLT3 (h) (Homo sapiens, UniProt P36888); assay: Radiometric kinase panel assay; format: biochemical; settings: Km ATP
T6 construct: purchased Eurofins Discovery
T6 sequence (P36888 27-993): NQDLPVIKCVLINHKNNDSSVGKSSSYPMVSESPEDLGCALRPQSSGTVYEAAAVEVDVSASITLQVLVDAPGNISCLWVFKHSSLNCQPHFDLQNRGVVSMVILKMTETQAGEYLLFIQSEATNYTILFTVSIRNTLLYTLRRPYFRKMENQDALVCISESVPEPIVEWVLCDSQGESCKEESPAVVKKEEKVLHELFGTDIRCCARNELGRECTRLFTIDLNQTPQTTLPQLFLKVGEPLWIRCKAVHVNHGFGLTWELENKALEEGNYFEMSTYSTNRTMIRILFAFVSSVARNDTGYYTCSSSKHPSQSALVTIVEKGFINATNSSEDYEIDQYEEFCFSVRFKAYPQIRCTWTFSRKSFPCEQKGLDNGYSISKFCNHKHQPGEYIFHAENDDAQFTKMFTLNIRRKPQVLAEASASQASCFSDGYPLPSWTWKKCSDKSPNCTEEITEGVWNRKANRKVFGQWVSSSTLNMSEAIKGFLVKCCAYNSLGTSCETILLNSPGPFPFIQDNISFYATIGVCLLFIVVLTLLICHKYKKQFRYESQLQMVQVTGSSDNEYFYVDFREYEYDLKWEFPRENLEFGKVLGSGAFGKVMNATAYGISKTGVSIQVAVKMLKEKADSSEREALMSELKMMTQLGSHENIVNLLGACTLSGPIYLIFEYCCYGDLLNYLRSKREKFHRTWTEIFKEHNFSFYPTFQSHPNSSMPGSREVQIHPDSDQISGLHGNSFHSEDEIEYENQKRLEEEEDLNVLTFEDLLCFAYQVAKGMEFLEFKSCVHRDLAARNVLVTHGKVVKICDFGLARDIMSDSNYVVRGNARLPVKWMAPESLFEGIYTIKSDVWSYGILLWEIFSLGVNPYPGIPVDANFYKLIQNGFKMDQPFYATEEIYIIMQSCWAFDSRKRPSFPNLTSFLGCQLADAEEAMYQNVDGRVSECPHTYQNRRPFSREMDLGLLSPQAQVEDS

AsPC-1 cells [2] = assay: Apoptosis induction, annexin V-FITC/PI flow cytometry; format: cell-based, human; settings: 10 μM, 48 h; for Late apoptosis: untreated 4.8%; for Early apoptosis: untreated 7.6%; for Percentage of total apoptosis: untreated 12.4%
Procedure: The ability of apoptosis induction of synthetic compounds was evaluated by FACS analysis with Annexin V-FITC/propidiuim iodide (PI) staining kit (BD Pharmingen, San Diego, CA, USA). AsPC-1 cells were cultured in 6-well plates at a density of 1 × 10^5 cells/ml. After 24 h, the synthesized derivatives at different concentrations were added and incubated for 48 h. After addition of trypsin to each well, the cells were harvested, transferred to 1.5 ml tubes and washed twice with PBS. At the final step, the cells were stained with Annexin V-FITC (5 µl) and PI (5 µl), followed by analysis by a FACS Calibur flow cytometer (Becton Dickinson, Mountain View, CA, USA). The effects of synthetic derivatives on the apoptosis rate were evaluated based on the fluorescence signal of 20,000 events.

T1 sequence (P16234 24-1089): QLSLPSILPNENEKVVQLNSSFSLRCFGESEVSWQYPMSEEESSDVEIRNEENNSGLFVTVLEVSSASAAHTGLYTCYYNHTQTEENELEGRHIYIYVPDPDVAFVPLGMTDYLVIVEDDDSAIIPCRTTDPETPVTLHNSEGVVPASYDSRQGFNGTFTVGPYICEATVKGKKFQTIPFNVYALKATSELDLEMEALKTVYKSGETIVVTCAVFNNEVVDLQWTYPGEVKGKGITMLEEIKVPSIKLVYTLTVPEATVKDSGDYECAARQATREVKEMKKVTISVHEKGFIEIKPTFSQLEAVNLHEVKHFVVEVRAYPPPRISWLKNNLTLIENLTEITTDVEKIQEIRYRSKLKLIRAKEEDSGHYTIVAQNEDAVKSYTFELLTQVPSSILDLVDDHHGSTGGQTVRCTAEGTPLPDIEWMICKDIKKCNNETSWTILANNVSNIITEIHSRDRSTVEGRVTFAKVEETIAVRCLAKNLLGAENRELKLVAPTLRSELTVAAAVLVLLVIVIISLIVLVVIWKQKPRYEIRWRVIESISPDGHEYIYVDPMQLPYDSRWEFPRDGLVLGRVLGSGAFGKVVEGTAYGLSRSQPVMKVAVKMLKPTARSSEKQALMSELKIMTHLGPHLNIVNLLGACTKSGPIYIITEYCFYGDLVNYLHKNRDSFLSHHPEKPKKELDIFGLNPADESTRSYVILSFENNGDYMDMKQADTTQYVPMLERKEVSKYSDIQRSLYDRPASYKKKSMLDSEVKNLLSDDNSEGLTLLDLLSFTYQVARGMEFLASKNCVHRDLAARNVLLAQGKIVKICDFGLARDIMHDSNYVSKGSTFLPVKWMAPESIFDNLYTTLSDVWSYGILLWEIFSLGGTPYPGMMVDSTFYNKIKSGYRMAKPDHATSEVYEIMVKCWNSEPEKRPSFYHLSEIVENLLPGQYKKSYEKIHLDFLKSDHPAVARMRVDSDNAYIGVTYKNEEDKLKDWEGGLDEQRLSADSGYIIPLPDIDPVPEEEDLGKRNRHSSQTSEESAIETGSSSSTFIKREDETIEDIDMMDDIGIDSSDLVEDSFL

inhibition at 10 µM (PDGFRA (h)) [%] | IC50 (PDGFRA (h); dose-response at six concentrations, curve fitting, read-out: PDGFRA kinase inhibition IC50) [µM] | inhibition at 10 µM (TRKA (h)) [%] | inhibition at 10 µM (KIT (h)) [%] | IC50 (MKN-45 cells) [µM] | IC50 (Mia-Paca-2 cells) [µM] | IC50 (K562 cells) [µM] | IC50 (AsPC-1 cells [1]) [µM] | IC50 (HT-29 cells) [µM] | IC50 (MET kinase; HTRF assay, read-out: MET kinase inhibition IC50) [µM] | inhibition at 10 µM (ABL (h)) [%] | inhibition at 10 µM (FLT3 (h)) [%] | inhibition at 10 µM (MET kinase; at 10 μM, mean ± S.E.M., read-out: Inhibitory effect against MET kinase) [%] | inhibition at 25 µM (MET kinase; at 25 μM, mean ± S.E.M., read-out: Inhibitory effect against MET kinase) [%] | inhibition at 50 µM (MET kinase; at 50 μM, mean ± S.E.M., read-out: Inhibitory effect against MET kinase) [%] | Compound | IC50 (EBC-1 cells) [µM] | Late apoptosis (AsPC-1 cells [2]) [%] | Early apoptosis (AsPC-1 cells [2]) [%] | Percentage of total apoptosis (AsPC-1 cells [2]) [%]
58 | 7.1 | 13 | 7 | 22 ± 4.8 | 25.6 ± 2.4 | 31.5 ± 6.4 | 15.3 ± 2.3 | 21 ± 4.7 | 36 ± 9.5 | 8 | 8 |  |  |  | Cc1ccc(Cn2cc(COc3ccc(C=NNc4ncnc5ccccc45)cc3)nn2)cc1 [Compound 8c, 2-(4-((1-(4-Methylbenzyl)-1H-1,2,3-triazol-4-yl)methoxy)benzylidene)-1-(quinazolin-4-yl)hydrazine] | 19 ± 0.7 | 10.7 | 15.5 | 26.1
46 |  | 28 | 2 | 12 ± 3.9 | 11.5 ± 0.8 | 34.4 ± 6.4 | 9.7 ± 1.9 | 8.6 ± 1.3 |  | 17 | 18 | 22 ± 7.4 | 25.7 ± 4.7 | 32.9 ± 2.2 | CC(C)(C)c1ccc(Cn2cc(COc3ccc(C=NNc4ncnc5ccccc45)cc3)nn2)cc1 [Compound 8h, 2-(4-((1-(4-Tert-butylbenzyl)-1H-1,2,3-triazol-4-yl)methoxy)benzylidene)-1-(quinazolin-4-yl)hydrazine] | 6.1 ± 1 | 9.6 | 15.8 | 25.4
